Reference: US20170073337A1, “DIHYDROTHIAZINE AND DIHYDROOXAZINE DERIVATIVES HAVING BACE1 INHIBITORY ACTIVITY” (Shionogi & Co., Ltd., priority 2014, published 2017)
Values after ≈ are worked out from the molar mass of the structure shown. Read-outs that look alike come from different tables or passages of the source.

Columns and labels:
[1] = molecular target: T1, human ether-a-go-go related gene (hERG) channel (Homo sapiens, UniProt Q12809); assay: hERG test; type: cell-based; details: % inhibition of IKr tail peak current at 3 uM; CHO cells expressing hERG
T1 construct: expressed in transfected cells; host or cells: CHO cells
T1 sequence (Q12809 whole entry): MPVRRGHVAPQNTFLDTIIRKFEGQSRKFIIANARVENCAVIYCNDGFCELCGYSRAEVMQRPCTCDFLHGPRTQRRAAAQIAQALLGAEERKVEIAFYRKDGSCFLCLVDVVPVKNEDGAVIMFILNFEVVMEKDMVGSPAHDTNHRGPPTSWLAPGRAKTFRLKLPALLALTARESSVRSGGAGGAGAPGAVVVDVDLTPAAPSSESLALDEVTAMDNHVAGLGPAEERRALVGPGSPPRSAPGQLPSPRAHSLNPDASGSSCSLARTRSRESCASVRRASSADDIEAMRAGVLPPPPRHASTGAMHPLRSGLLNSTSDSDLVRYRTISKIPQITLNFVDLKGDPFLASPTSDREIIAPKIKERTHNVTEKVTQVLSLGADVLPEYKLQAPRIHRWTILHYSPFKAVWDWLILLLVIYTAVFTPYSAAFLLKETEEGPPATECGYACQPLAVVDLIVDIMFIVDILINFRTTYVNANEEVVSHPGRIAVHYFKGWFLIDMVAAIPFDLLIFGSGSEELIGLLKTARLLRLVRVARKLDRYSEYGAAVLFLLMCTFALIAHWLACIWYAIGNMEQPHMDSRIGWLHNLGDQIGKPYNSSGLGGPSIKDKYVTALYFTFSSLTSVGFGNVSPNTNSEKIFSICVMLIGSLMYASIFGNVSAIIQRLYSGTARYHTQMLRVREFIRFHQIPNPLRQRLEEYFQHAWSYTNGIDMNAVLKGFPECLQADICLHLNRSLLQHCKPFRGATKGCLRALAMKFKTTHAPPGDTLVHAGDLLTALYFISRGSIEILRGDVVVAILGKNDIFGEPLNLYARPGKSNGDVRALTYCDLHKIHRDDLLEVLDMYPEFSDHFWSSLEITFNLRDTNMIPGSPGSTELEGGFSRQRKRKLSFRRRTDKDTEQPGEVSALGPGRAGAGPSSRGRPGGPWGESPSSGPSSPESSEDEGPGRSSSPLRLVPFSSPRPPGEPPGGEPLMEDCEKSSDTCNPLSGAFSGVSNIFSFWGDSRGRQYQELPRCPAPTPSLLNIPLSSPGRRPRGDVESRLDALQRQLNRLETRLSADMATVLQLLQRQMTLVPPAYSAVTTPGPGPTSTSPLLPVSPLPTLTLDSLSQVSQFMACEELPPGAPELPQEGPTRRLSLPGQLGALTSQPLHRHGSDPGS
How it was run: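 IKr was recorded from hERG-expressing CHO cells by automated whole-cell patch clamp at a holding potential of −80 mV. A −50 mV leak step was followed by a 2 s depolarization to +20 mV and a 2 s repolarization to −50 mV, when current was measured.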

Metabolic stability test = type: in vitro ADME; details: human liver microsomes, 37° C., 30 minutes, NADPH
How it was run: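 Parent compound was measured by LC/MS/MS or SPE/MS after a methanol/acetonitrile quench and reported as % remaining, with the 0 min sample set to 100%. Incubations ran 30 min at 37 °C in pH 7.4 Tris buffer containing pooled human liver microsomes at 0.5 mg protein/mL and 1 mmol/L NADPH.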

CYP2C19 = molecular target: T2, CYP2C19 (Homo sapiens, UniProt P33261); assay: CYP inhibition test (CYP2C19); type: in vitro ADME; details: pooled human liver microsomes; mephenytoin 4′-hydroxylation
T2 construct: The commercially available pooled human liver microsomes are used as an enzyme resource; from tissue; host or cells: pooled human liver microsomes
T2 sequence (P33261 whole entry): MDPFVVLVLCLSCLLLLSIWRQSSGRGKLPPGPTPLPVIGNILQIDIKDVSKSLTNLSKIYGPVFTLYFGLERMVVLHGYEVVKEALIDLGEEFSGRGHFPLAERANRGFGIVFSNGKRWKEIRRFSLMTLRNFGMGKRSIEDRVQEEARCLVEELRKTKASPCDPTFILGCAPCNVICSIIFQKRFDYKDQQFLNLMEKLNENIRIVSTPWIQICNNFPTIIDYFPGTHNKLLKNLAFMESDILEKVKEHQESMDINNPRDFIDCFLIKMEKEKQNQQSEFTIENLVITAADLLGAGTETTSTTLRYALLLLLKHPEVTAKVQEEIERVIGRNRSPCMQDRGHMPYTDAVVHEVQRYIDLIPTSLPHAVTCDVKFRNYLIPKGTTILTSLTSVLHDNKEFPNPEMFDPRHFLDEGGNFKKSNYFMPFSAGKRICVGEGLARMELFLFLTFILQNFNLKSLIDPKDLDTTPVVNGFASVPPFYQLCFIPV
How it was run: (§1)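 Pooled human liver microsomes (0.2 mg protein/mL) were incubated at 37 °C with NADPH, compound at 1, 5, 10, 20 μmol/L and marker substrates: tolbutamide 100 μmol/L (2C9), S-mephenytoin 50 μmol/L (2C19), dextromethorphan 5 μmol/L (2D6), terfenadine 1 μmol/L (3A4). Metabolites were measured by LC/MS/MS; IC50 came from logistic fitting against DMSO control.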

CYP1A2 = molecular target: T3, CYP1A2 (Homo sapiens, UniProt P05177); assay: CYP inhibition test (CYP1A2); type: in vitro ADME; details: pooled human liver microsomes; 7-ethoxyresorufin O-deethylation
T3 construct: The commercially available pooled human liver microsomes are used as an enzyme resource; from tissue; host or cells: pooled human liver microsomes
T3 sequence (P05177 1-516): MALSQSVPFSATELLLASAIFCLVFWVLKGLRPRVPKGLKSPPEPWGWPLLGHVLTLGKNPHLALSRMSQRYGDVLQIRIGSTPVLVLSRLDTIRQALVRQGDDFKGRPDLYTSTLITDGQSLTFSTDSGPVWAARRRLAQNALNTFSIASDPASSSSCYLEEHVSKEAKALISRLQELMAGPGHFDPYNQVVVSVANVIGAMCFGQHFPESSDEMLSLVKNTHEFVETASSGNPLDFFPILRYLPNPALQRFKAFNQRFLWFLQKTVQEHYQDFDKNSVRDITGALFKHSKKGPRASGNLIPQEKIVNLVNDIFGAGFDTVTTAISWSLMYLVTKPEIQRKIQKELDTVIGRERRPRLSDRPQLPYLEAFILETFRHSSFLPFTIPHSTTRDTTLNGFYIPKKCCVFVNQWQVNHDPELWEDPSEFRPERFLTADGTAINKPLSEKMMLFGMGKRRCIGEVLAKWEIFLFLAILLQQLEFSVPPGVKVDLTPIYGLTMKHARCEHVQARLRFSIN
How it was run: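 Inhibition of CYP1A2 was measured in commercially available pooled human liver microsomes (0.2 mg protein/mL) using 7-ethoxyresorufin O-deethylation with 0.5 μmol/L ethoxyresorufin. Test compound at 1, 5, 10, 20 μmol/L in […] Hepes buffer was incubated at 37° C. after NADPH addition; methanol/acetonitrile=1/1 (v/v) stopped the reaction, and resorufin was read fluorescently.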

CYP3A4 = molecular target: T4, CYP3A4 (Homo sapiens, UniProt P08684); assay: CYP inhibition test (CYP3A4); type: in vitro ADME; details: pooled human liver microsomes; terfenadine hydroxylation
T4 construct: The commercially available pooled human liver microsomes are used as an enzyme resource; from tissue; host or cells: pooled human liver microsomes
T4 sequence (P08684 whole entry): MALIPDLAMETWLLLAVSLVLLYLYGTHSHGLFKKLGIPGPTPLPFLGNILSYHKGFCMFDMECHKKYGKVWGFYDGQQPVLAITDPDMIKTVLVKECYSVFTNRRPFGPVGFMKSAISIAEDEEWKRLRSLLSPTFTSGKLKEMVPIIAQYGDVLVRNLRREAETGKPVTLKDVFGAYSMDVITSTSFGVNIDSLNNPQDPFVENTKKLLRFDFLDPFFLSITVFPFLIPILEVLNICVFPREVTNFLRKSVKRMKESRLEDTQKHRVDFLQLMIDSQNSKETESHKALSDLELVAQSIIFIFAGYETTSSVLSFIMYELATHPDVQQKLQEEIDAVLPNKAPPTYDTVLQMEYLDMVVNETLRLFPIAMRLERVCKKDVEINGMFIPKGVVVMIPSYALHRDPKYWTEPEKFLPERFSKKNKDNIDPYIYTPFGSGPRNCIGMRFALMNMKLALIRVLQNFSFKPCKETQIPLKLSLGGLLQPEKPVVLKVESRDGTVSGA
How it was run: as §1

Solubility test = type: physicochemical
How it was run: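 Dissolved concentration determined by LC/MS or SPE/MS (absolute calibration) in diluted filtrates, after 2 μL of 10 mmol/L DMSO stock was added to 198 μL JP 1st or JP 2nd fluid and equilibrated either 1 h with shaking at room temperature or 16 h standing at 25 °C.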

[2] = JP 1st fluid, pH 1.2, simulated gastric fluid, kinetic from dmso stock, read-out: JP1
[3] = JP 2nd fluid A, pH 6.8, aqueous buffer, kinetic from dmso stock, read-out: JP2_μM
[4] = JP 2nd fluid B, pH 6.8, aqueous buffer, kinetic from dmso stock, read-out: JP2_μM
[5] = solubility in JP 2nd fluid B, 1% DMSO, *2: shaken for 1 hour at room temperature, read-out: JP2_μM

SMILES | hERG_3 uM_% [1] | remaining % (Metabolic stability test) | IC50 (CYP2C19) | IC50 (CYP1A2) | IC50 (CYP3A4) | solubility kinetic at 1 h (Solubility test; [2]) | solubility kinetic at 1 h (Solubility test; [3]) | solubility kinetic at 1 h (Solubility test; [4]) | solubility kinetic at 16 h (Solubility test; [5]) | solubility kinetic at 16 h (Solubility test; JP 1st fluid, 25 °C, pH 1.2, simulated gastric fluid, kinetic from dmso stock, read-out: JP1) | solubility kinetic at 16 h (Solubility test; JP 2nd fluid A, 25 °C, pH 6.8, aqueous buffer, kinetic from dmso stock, read-out: JP2_μM)
COc1cnc(C(=O)Nc2ccc(F)c([C@@]3(C)N=C(N)O[C@H]([C@@H](C)F)[C@@H]3F)c2)cn1 [Compound I-71] | 17% | 63% | ≥ 20 µM | ≥ 20 µM | ≥ 20 µM | > 50 µM | > 50 µM | – | – | – | –
C[C@]1(c2cc(NC(=O)c3ccc(C#N)cn3)ccc2F)N=C(N)O[C@H](C(F)(F)C2CC2)[C@@H]1F [Compound I-81] | 49.3% | 101% | ≥ 20 µM | ≥ 20 µM | ≥ 10 µM | > 50 µM | – | 19.3 µM (≈ 8.91 µg/mL) | – | – | –
COc1cnc(C(=O)Nc2ccc(F)c([C@@]3(C)N=C(N)O[C@H](C(F)F)[C@@H]3C)c2)cn1 [Compound I-86] | 23.8% | 67.5% | ≥ 20 µM | ≥ 20 µM | ≥ 20 µM | > 50 µM | > 50 µM | – | – | – | –
CO[C@H]1[C@@H](C)SC(N)=N[C@]1(C)c1cc(NC(=O)c2cnc(OCF)cn2)ccc1F [Compound I-87] | 13.8% | 81% | ≥ 20 µM | ≥ 20 µM | ≥ 20 µM | > 50 µM | – | – | >50 µM | – | –
CO[C@H]1[C@@H](C)SC(N)=N[C@]1(C)c1cc(NC(=O)c2ccc(C#N)cn2)ccc1F [Compound I-88] | 45.6% | 83.5% | ≥ 20 µM | ≥ 20 µM | ≥ 20 µM | > 50 µM | – | – | >50 µM | – | –
CO[C@H]1[C@@H](C)SC(N)=N[C@]1(C)c1cc(NC(=O)c2ccc(F)cn2)ccc1F [Compound I-89] | 42.7% | 86.7% | ≥ 20 µM | ≥ 20 µM | ≥ 20 µM | > 50 µM | – | – | >50 µM | – | –
COc1cnc(C(=O)Nc2ccc(F)c([C@@]3(C)N=C(N)S[C@H](C)[C@@H]3OC)c2)cn1 [Compound I-90] | 11.4% | 83.1% | ≥ 20 µM | ≥ 20 µM | ≥ 20 µM | > 50 µM | – | – | >50 µM | – | –
COC[C@H]1SC(N)=N[C@](C)(c2cc(NC(=O)c3cnc(OCF)cn3)ccc2F)[C@H]1F [Compound I-91] | 11.3% | 74.4% | ≥ 20 µM | ≥ 20 µM | ≥ 20 µM | > 50 µM | – | – | >50 µM | – | –
COc1ccc(C(=O)Nc2ccc(F)c([C@@]3(C)N=C(N)S[C@H](C)[C@@H]3F)c2)nn1 [Compound I-108] | 39.5% | 92.1% | ≥ 20 µM | ≥ 20 µM | ≥ 20 µM | > 50 µM | – | – | >50 µM | – | –
C[C@]1(c2cc(NC(=O)c3cnc(OCF)cn3)ccc2F)N=C(N)S[C@H](CO)[C@@H]1F [Compound I-109] | 11% | 86.8% | ≥ 20 µM | ≥ 20 µM | ≥ 20 µM | > 50 µM | – | 19 µM (≈ 8.39 µg/mL) | – | – | –
C[C@H]1SC(N)=N[C@](C)(c2cc(NC(=O)c3ccc(F)cn3)ccc2F)[C@H]1F [Compound I-116] | 45.5% | 106% | ≥ 20 µM | ≥ 20 µM | ≥ 20 µM | – | – | – | – | > 50 µM | > 50 µM
